Patent US11325937B2, “Glycoside compound and preparation method therefor, composition, application, and intermediate” (SHANGHAI HUTCHISON PHARMACEUTICALS LIMITED, priority 2018, dated 2022)

System: VEGF-A mRNA expression in macrophages (RAW264.7)
Assay: In vitro macrophage experiment: activity of compounds to promote VEGF-A mRNA expression (RT-qPCR)
Type: cell-based
Conditions: Mus musculus, RAW264.7 macrophages, 3 h, no drug = 1, read-out: Expression level of VEGF-A mRNA; for fold induction at 1 µM: relative expression 2^-ΔΔCt; for fold induction at 100 µM: 0.1 mM; for fold induction at 100 µM / fold induction at 500 µM / fold induction at 1000 µM / fold induction at 2000 µM / fold induction at 3000 µM: relative expression; for fold induction at 500 µM: 0.5 mM; for fold induction at 1000 µM: 1 mM; for fold induction at 2000 µM: 2 mM; for fold induction at 3000 µM: 3 mM
Excerpt: 1.1. Specific steps for activity screening: 1-10×10^6 macrophages (RAW264.7) in logarithmic growth phase were transferred to a cell culture plate. The test compounds (Compounds TG-001, TG-002, TG-003, TG-004, TG-005, TG-006, TG-007, TG-008, TG-009, TG-010, TG-011, TG-012, TG-013, TG-014, TG-015, TG-016, TG-017, TG-018, TG-019, TG-020, TG-021, TG-022, TG-023, TG-024, TG-025, TG-026, TG-027, TG-028, TG-029, TG-030, TG-031, TG-032, TG-033, TG-034, TG-035, TG-036, TG-037, TG-045, TG-039, TG-040 TG-041, TG-042, TG-043, TG-044, TG-045, TG-052, TG-053, TG-054, TG-047, TG-048, TG-046, TG-049, TG-050, TG-051, TG-055 and TG-056) were respectively diluted into various concentrations, and separately added to the cell culture plate containing macrophage. The cells were cultured for 3 h in a complete medium (RPMI 1640 medium:fetal bovine serum:tri-resistance screening agent (i.e. penicillin-streptomycin-gentamicin, Beijing Leagene Biotechnology Co., Ltd.)=89:10:1 based on volume) in a cell incubator at 37° C. and 5% CO2. The cells were lyzed by Trizol (Beijing ComWin Biotech Co., Ltd) to extract RNA, and the RNA concentration was measured using a microvolume nucleic acid and protein analyzer (Nanodrop2000c). The required volume V of RNA was calculated according to the RNA concentration, and the RNA reverse transcription reaction system was prepared according to Table 1. Then RNA reverse transcription (cDNA synthesis) (RT Easy™ I (For first-strand cDNA synthesis) Reverse Transcription Kit, Chengdu ForeGene Biotechnology Co., Ltd.) was carried out according to the conditions described in Table 2. The resulting cDNA was used to prepare a fluorescence quantitative PCR reaction solution according to Table 3. The fluorescence quantitative PCR reaction conditions were set according to Table 4, and the fluorescence quantitative PCR reaction (Real time PCR Easy™-SYBR Green Fluorescence Quantification Kit, Chengdu ForeGene Biotechnology Co., Ltd.) was performed using cDNA from the reverse transcription reaction as a template. The relative expression level 2^−ΔΔCt of the target gene was calculated from the Ct value of each sample with the blank control group as a control and β-Actin as an internal reference.
Based on the maximum level of VEGF-A mRNA expression promoted by a drug at a certain concentration, the activity of the drug was determined. The expression level of VEGF-A mRNA in macrophages was defined as 1 when no drug was added. Using a traditional Chinese medicine injection Salvianolate that is used in the treatment of Cardio-cerebrovascular disease and promotes a maximum level of VEGF-A mRNA expression of 6 in macrophages (the results are shown in Table 5) as a judgment standard, the compound promoting a maximum level of VEGF-A mRNA expression of 4 or more in macrophage was a target compound. That is, when the maximum level of VEGF-A mRNA expression in macrophages promoted by the test compound is over 4-fold higher than the expression level of VEGF-A mRNA in macrophages without the addition of the test compound, the test compound was a preliminary target compound promoting angiogenesis.

Structure (SMILES) | fold induction at 1 µM | fold induction at 100 µM | fold induction at 500 µM | fold induction at 1000 µM | fold induction at 2000 µM | fold induction at 3000 µM
OC[C@H]1O[C@@H](OCCCCc2ccc(OCc3ccc(C(F)(F)F)cc3)cc2)[C@H](O)[C@@H](O)[C@@H]1O [TG-026] | 1.44 | 6.85 | 7.92 | 8.13 | 7.92 | 8.16
COc1ccc(CCCCO[C@H]2O[C@H](CO)[C@@H](O)[C@H](O)[C@H]2O)cc1 [TG-046] | 1.86 | 1.96 | 2.14 | 2.27 | 2.25 | 5.32
C=CCOc1ccc(CCCCO[C@@H]2O[C@H](CO)[C@@H](O)[C@H](O)[C@H]2O)cc1 [TG-015] | 1.58 | 1.26 | 2.18 | 4.3 | 1.65 | 1.53
OC[C@H]1O[C@@H](OCCCCc2ccc(O)cc2)[C@H](O)[C@@H](O)[C@@H]1O [TG-023] | 0.16 | 0.55 | 0.71 | 0.5 | 0.19 | 0.71
OC[C@H]1O[C@@H](OCCCCc2ccc3c(c2)OCO3)[C@H](O)[C@@H](O)[C@@H]1O [TG-008] | 3.34 | 1.38 | 1.42 | 0.61 | 6.28 | 5.46
O=[N+]([O-])c1ccc(CCCCO[C@@H]2O[C@H](CO)[C@@H](O)[C@H](O)[C@H]2O)cc1 [TG-011] | 1.75 | 1.18 | 1.3 | 0.46 | 1.24 | 0.55
OC[C@H]1O[C@@H](OCCCCc2ccc(OCc3ccccc3)cc2)[C@H](O)[C@@H](O)[C@@H]1O [TG-013] | 1.44 | 2.51 | 3.98 | 3.3 | 3.23 | 2.44
OC[C@H]1O[C@@H](OCCCCc2ccc(OCC3CCCC3)cc2)[C@H](O)[C@@H](O)[C@@H]1O [TG-018] | 0.88 | 3.62 | 4.15 | 5.26 | 7.24 | 6.53
OC[C@H]1O[C@@H](OCCCCc2ccc(OCc3ccccn3)cc2)[C@H](O)[C@@H](O)[C@@H]1O [TG-022] | 2.31 | 0.91 | 1.43 | 1.68 | 1.89 | 0.66
OC[C@H]1O[C@@H](OCCCCC2CCCCC2)[C@H](O)[C@@H](O)[C@@H]1O [TG-009] | 1.29 | 1.28 | 0.95 | 1 | 1.61 | 5.94
COc1ccccc1CCCCO[C@@H]1O[C@H](CO)[C@@H](O)[C@H](O)[C@H]1O [TG-001] | 3.68 | 1.65 | 7.89 | 1.91 | 2.36 | 0.68
